# Assay results published in ChEMBL document CHEMBL4425144, “Discovery and Structural Optimization of N5-Substituted 6,7-Dioxo-6,7-dihydropteridines as Potent and Selective Epidermal Growth Factor Receptor (EGFR) Inhibitors against L858R/T790M Resistance Mutation” (J Med Chem, 2016).
# Calls of active or inactive are those of the source. No cut-off for these calls is given here.
# Experiments:
# [1] = Dissociation constant, pKa of the compound by Sirius T3 based assay; type: physicochemical
# [2] = biological target: Calcium/calmodulin-dependent protein kinase type 1 (Homo sapiens) (UniProt Q14012); assay: Inhibition of human CAMK1 expressed in bacterial system assessed as remaining enzyme activity at 1000 nM relative to untreated control
# [3] = tested on: A-431; assay: Antitumor activity against human A431 cells xenografted in BALB/c mouse assessed as inhibition of tumor growth at 50 mg/kg, po qd for 14 consecutive days; type: functional; details: A-431, po, read-out: TGI
# [4] = biological target: T1, Cyclin-G-associated kinase (Homo sapiens) (UniProt O14976); assay: Inhibition of human GAK expressed in bacterial system assessed as remaining enzyme activity at 1000 nM relative to untreated control
# T1 sequence (whole entry): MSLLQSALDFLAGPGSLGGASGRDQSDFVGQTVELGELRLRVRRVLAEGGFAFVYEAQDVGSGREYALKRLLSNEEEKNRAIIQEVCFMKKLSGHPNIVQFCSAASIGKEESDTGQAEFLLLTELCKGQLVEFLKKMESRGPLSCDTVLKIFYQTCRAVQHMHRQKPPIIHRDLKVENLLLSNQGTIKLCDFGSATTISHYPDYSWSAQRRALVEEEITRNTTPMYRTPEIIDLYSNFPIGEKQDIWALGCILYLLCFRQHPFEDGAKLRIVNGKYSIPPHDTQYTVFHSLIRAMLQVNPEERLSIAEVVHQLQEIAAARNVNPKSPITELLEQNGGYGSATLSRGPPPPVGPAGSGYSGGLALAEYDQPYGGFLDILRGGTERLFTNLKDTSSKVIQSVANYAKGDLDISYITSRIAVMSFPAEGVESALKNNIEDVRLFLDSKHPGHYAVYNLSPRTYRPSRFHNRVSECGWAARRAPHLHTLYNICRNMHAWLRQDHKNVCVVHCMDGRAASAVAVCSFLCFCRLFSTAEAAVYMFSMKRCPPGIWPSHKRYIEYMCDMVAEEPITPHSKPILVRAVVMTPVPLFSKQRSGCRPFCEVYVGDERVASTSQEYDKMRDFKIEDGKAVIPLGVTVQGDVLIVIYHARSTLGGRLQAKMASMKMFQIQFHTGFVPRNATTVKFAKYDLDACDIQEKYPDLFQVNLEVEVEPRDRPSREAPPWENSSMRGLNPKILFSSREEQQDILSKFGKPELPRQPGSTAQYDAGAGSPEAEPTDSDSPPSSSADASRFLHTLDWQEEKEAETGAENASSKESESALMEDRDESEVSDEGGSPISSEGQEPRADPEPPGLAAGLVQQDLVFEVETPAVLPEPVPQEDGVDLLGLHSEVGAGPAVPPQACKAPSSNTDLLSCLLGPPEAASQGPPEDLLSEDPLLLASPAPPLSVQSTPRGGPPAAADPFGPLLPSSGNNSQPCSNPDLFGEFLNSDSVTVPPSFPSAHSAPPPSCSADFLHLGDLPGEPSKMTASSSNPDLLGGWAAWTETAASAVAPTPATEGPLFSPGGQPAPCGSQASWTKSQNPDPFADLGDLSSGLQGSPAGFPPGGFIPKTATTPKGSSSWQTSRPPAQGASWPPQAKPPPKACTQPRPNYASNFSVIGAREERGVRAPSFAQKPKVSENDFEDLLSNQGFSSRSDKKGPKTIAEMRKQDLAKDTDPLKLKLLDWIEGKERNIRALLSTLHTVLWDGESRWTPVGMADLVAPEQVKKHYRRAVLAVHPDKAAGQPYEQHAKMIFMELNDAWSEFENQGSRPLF
# [5] = biological target: Receptor tyrosine-protein kinase erbB-4 (Homo sapiens) (UniProt Q15303); assay: Inhibition of human ERBB4 expressed in bacterial system assessed as remaining enzyme activity at 1000 nM relative to untreated control
# [6] = Thermodynamic solubility of the compound in 0.1M PBS buffer at pH 7.4 by UV-visible spectrophotometry; type: physicochemical; details: read-out: Therm_solubility
# [7] = biological target: Epidermal growth factor receptor (Homo sapiens, UniProt P00533, L858R/T790M); assay: Inhibition of EGFR kinase domain L858R/T790M mutant (unknown origin) expressed using baculovirus expression system incubated for 1 hr using Poly(Glu,Tyr) 4:1 by ELISA method
# [8] = tested on: Mus musculus; assay: Inhibition of EGFR kinase domain L858R/T790M mutant phosphorylation in human NCI-H1975 cells xenografted BALB/c mouse at 50 mg/kg, po qd for 14 consecutive days by Western blot method; type: functional, organism-based
# [9] = tested on: NCI-H1975; details: Homo sapiens, at 50 mg/kg
# Description: Antitumor activity against human NCI-H1975 cells xenografted in BALB/c mouse assessed as inhibition of tumor cell proliferation by measuring Ki-67 expression at 50 mg/kg, po qd for 14 consecutive days by immunohistochemistry
# [10] = Half life in mouse liver microsomes at 1 uM in presence of NADPH by LC-MS/MS method; type: ADME, Microsome
# [11] = biological target: Epidermal growth factor receptor (Homo sapiens, UniProt P00533); assay: Inhibition of EGF-induced EGFR kinase domain phosphorylation in human NCI-H1975 cells at 1000 nM pre-incubated for 2 hrs followed by stimulation with EGF for 15 mins by Western blot method; type: cell-based
# [12] = Oral bioavailability in ICR mouse at 10 mg/kg by LC-MS/MS method; type: ADME, organism-based; details: in vivo
# [13] = AUC (0 to infinity) in ICR mouse at 10 mg/kg, po by LC-MS/MS method; type: ADME, organism-based; parameters: dose 10 mg/kg, time infinity, route oral; details: in vivo
# [14] = Cmax in ICR mouse at 10 mg/kg, po by LC-MS/MS method; type: ADME, organism-based; parameters: dose 10 mg/kg, route oral; details: in vivo
# Sequence of Epidermal growth factor receptor (Homo sapiens, UniProt P00533, L858R/T790M) (P00533 25-1210 T790M/L858R limits assumed): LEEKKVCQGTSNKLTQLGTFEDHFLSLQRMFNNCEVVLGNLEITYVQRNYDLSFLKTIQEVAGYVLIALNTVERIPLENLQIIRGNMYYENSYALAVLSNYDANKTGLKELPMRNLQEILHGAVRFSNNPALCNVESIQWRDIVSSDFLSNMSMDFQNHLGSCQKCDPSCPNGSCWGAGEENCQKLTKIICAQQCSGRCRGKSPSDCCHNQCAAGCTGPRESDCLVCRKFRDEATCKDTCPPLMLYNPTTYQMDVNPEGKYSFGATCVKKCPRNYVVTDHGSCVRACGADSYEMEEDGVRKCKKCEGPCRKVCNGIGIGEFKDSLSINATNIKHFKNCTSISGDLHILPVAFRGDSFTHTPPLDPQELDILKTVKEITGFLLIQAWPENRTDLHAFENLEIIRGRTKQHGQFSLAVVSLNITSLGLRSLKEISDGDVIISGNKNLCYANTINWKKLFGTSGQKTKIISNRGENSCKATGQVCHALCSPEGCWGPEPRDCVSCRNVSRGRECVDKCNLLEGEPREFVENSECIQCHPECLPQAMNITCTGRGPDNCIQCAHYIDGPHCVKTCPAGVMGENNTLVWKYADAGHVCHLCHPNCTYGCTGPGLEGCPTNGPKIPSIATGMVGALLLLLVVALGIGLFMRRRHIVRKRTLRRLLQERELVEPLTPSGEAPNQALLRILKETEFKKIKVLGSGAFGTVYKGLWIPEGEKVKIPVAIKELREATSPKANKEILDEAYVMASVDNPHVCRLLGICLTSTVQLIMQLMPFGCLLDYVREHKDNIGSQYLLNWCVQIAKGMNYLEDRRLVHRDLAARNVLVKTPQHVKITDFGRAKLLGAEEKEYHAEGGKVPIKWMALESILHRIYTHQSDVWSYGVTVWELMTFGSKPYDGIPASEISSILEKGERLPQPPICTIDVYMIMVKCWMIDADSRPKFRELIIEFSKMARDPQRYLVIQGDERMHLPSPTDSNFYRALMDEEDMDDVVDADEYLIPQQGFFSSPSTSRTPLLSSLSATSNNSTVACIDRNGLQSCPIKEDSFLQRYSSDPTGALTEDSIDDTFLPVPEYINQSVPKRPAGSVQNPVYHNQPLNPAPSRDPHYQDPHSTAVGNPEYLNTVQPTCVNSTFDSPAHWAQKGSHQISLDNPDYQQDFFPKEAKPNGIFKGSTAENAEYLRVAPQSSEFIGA
# Sequence of Calcium/calmodulin-dependent protein kinase type 1 (Homo sapiens) (Q14012 whole entry, looked up): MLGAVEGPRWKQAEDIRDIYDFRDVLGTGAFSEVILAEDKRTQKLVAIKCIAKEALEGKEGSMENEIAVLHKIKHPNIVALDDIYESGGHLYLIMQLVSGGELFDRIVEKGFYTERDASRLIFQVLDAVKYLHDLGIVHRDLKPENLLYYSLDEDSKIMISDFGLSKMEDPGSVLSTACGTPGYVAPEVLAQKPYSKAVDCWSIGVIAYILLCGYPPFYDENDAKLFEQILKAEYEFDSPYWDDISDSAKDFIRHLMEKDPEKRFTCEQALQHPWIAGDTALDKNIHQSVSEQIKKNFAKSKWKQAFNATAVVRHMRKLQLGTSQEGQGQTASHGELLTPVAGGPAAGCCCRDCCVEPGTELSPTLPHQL
# Sequence of Epidermal growth factor receptor (Homo sapiens, UniProt P00533) (P00533 whole entry, the tested form may be a part): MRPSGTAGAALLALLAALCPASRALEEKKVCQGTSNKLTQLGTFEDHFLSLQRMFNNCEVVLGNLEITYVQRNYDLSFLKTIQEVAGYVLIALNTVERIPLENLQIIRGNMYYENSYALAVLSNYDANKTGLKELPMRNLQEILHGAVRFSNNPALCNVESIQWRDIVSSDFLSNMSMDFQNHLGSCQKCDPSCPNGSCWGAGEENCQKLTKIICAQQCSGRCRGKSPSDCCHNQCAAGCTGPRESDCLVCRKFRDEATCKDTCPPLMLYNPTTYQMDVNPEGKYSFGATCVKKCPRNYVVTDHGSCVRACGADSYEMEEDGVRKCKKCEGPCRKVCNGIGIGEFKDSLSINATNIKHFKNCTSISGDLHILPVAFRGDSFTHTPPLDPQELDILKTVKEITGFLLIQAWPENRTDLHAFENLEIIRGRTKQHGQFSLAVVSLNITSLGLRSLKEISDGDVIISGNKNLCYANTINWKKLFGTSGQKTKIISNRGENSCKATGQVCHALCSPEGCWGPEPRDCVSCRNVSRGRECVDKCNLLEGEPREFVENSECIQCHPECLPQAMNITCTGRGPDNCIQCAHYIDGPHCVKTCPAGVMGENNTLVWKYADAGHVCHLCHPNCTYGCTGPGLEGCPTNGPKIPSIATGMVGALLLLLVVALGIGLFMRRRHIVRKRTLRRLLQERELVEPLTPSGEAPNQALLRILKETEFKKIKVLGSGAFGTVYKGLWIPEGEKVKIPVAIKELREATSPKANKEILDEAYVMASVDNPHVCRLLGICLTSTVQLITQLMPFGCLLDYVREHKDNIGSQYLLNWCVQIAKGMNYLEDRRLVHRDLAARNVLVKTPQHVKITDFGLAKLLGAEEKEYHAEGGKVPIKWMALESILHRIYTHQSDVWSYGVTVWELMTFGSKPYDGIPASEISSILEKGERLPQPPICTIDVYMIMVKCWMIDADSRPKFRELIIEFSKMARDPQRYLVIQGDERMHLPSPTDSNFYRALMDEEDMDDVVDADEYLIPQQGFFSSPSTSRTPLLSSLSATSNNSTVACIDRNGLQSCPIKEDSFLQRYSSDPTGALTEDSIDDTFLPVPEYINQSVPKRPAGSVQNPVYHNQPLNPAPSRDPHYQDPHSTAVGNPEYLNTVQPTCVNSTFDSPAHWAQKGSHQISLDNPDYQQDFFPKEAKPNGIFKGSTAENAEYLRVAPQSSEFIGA
# Sequence of Receptor tyrosine-protein kinase erbB-4 (Homo sapiens) (Q15303 whole entry): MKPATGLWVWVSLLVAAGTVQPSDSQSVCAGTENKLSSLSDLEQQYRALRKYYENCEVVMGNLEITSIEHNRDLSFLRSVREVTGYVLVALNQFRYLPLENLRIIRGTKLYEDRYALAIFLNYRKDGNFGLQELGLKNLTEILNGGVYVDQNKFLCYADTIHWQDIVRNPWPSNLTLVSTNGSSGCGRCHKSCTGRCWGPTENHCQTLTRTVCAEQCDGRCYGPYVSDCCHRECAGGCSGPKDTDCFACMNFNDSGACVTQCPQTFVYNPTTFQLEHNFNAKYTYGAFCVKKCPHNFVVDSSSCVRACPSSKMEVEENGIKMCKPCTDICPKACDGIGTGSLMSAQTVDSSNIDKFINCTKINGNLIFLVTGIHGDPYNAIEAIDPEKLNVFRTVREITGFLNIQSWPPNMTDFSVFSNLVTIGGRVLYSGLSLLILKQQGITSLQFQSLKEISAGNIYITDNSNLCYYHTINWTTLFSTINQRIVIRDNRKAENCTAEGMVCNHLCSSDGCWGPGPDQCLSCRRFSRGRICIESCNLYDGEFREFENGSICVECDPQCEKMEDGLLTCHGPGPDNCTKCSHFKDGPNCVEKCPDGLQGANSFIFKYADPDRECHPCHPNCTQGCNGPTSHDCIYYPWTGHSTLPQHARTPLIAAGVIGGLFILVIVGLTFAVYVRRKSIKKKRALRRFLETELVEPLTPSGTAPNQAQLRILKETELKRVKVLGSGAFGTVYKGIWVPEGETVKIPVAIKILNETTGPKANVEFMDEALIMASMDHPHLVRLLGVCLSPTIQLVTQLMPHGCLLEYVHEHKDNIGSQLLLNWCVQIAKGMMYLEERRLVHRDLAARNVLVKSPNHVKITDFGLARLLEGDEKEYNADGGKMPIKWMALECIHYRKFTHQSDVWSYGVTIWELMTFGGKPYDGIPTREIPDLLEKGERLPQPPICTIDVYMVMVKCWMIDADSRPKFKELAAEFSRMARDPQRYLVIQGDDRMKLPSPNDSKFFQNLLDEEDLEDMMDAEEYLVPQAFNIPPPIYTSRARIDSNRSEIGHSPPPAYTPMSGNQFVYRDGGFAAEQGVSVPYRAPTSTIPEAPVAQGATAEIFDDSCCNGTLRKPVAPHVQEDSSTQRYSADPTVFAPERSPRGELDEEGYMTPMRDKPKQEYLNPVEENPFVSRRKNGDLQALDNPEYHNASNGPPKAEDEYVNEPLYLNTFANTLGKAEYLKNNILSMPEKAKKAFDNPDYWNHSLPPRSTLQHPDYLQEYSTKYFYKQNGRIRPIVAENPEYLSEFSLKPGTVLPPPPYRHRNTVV
smiles,measurement,setting,value
C=CC(=O)Nc1cccc(-n2c(=O)c(=O)n(C(C)C)c3cnc(Nc4ccc(N5CCN(C)CC5)cc4OC)nc32)c1,pKa,[1],7.7
same,Activity,[2],< 1%
same,inhibition in vivo at 50 mg/kg,[3],50%
same,Activity,[4],< 1%
same,Activity,[5],< 1%
same,solubility thermodynamic,[6],41 µg/mL
same,IC50,[7],0.3 nM
same,inhibition,[8],Active
same,inhibition,[9],Active
same,half-life at 1 µM,[10],51 min
same,inhibition,[11],inactive
same,bioavailability,[12],48%
same,AUC(0-inf),[13],680 ng·h/mL
same,Cmax,[14],136 ng/mL
